1 molecule from patent US20090085008A1, “Cellulose compound composition and cellulose compound film” (FUJIFILM Corporation, priority 2005, published 2009) can be followed below.

This data set in a line: Solubility in mixture solvent methylene chloride:methanol = 87:13. In kind it is physicochemical. The settings on record: Methylene chloride:Methanol = 87:13 (mass ratio).

The structures appear in SMILES notation.

Protocol: A test was conducted to evaluate the solubility of the compound represented by formula (1) or (2), which can be used in the present invention, in a halogen-containing mixture solution.

Regarding `COc1cc(OC)c(C(=O)Oc2ccc(C(=O)Oc3ccc(-c4ccc(OC(=O)c5ccc(OC(=O)c6cc(OC)c(OC)cc6OC)cc5)cc4)cc3)cc2)cc1OC` [Analogous compound], the Solubility is 1%.
